Data from patent US20240124434A1, “ATF6 INHIBITORS AND USES THEREOF” (Altos Labs, Inc., priority 2018, published 2024).
pIC50: −log10 of the molar value. Values after ≈ are worked out from the molar mass of the structure shown.

Tests used:
[1] = Kinetic solubility (nephelometry); assay type: physicochemical; settings: aqueous buffer, kinetic from dmso stock; PBS pH 7.4, 1% DMSO, 1 hour at 37° C., light scattering at 625 nm
Description: Concentration (μM) was then calculated by segmental regression. Amiodarone (#A8423 Aldrich) was used as positive control.

[2] = In vitro microsomal stability, human liver microsomes; assay type: in vitro ADME; settings: for half-life at […], 1 µM: human, read-out: T1/2 @ hLM; for half-life at […], 1 µM / microsomal CLint at […], 1 µM: human liver microsomes, pH 7.4; for microsomal CLint at […], 1 µM: intrinsic clearance, read-out: Clint @ hLM; for Rem. @ hLM (%): remaining fraction after 30 min, 1 μM compound, 0.5 mg/mL human liver microsomes, 1 mM NADPH
Description: (§1) Compounds were incubated at a final concentration of 1 μM with 0.5 mg/mL human liver microsomes (hLM) (#HMMCPL; Thermo), mouse liver microsomes (mLM) (#MSMCPL; Thermo) or rat liver microsomes (rLM) (#RTMCPL; Thermo) and 1 mM reduced dihydronicotinamide-adenine dinucleotide phosphate (NADPH) (#N1630; Sigma) in 100 mM phosphate buffer (pH 7.4) at 37° C. The reactions were terminated at 0, 5, 15 and 30 min by the addition of cold acetonitrile containing 50 ng/mL propranolol as an internal standard. […] Verapamil hydrochloride (#V4369 Aldrich) was used as a positive control in all studies.

[3] = system: ATF6; assay: ERSE ATF6-luciferase reporter assay (thapsigargin-induced ER stress); assay type: cell-based, human; settings: Homo sapiens, U2OS, thapsigargin-induced ER stress, U2-OS ATF6 luc reporter cells; for inhibition at 1 µM: 8 h, read-out: Inh. ATF6-Luc @ 1 μM [%], 1 μM test compound, 8 hr; for IC50: read-out: IC50 ATF6-Luc reporter [μM], dose-response 30 μM to 1 nM
[4] = In vitro microsomal stability, rat liver microsomes; assay type: in vitro ADME; settings: for microsomal CLint at […], 1 µM: intrinsic clearance, read-out: Clint @ rLM; for Rem. @ rLM (%): remaining fraction after 30 min, 1 μM compound, 0.5 mg/mL rat liver microsomes, 1 mM NADPH
Description: as §1

[5] = In vitro microsomal stability, mouse liver microsomes; assay type: in vitro ADME; settings: for microsomal CLint at […], 1 µM: intrinsic clearance, read-out: Clint @ mLM; for Rem. @ mLM (%): remaining fraction after 30 min, 1 μM compound, 0.5 mg/mL mouse liver microsomes, 1 mM NADPH
Description: as §1

[6] = target: CYP2C19 (Homo sapiens (Human), UniProt P33261); assay: CYP inhibition in human liver microsomes; settings: read-out: CYP-2C19; human liver microsomes; probe substrate mephenytoin
Description: (§2) CYP inhibition by test compounds in human liver microsomes (HLM) for seven major CYP450 isoforms CYP1A2, CYP2C9, CYP2D6, CYP2B6, CYP2C8, CYP2C19 and CYP3A4 were assessed. […] 50 μM phenacetin, 2 μM midazolam, 5 μM diclofenac, 50 μM mephenytoin, 80 μM bupropion, and 5 μM dextromethorphan were used as probe substrates of CYP1A2, CYP3A4, CYP2C9, CYP2C19, CYP2B6, and CYP2D6, respectively. The incubation times were 20 min for […], CYP2D6, CYP2C9, CYP2B6, and CYP2C8; 40 min for CYP2C19; and 10 min for CYP 3A4. Following incubations, the reactions were terminated with acetonitrile containing internal standard. The samples were centrifuged and the supernatants were analyzed for the formation of metabolites (1-hydroxymidazolam (CYP3A4), 4-hydroxydiclofenac (CYP2C9), 4-hydroxymephenytoin (CYP2C19) and dextrorphan (CYP2D6), hydroxybupropion (CYP2B6), acetaminophen (CYP1A2), desethylamodiaquine (CYP2C8)) by LC/MS/MS.

[7] = target: CYP2C8 (Homo sapiens (Human), UniProt P10632); assay: CYP inhibition in human liver microsomes; settings: read-out: CYP-2C8, metabolite desethylamodiaquine
Description: as §2

[8] = target: CYP2D6 (Homo sapiens (Human), UniProt P10635); assay: CYP inhibition in human liver microsomes; settings: read-out: CYP-2D6; human liver microsomes; probe substrate dextromethorphan
Description: as §2

[9] = target: CYP3A4 (Homo sapiens (Human), UniProt P08684); assay: CYP inhibition in human liver microsomes; settings: read-out: CYP-3A4; human liver microsomes; probe substrate midazolam
Description: as §2

[10] = target: CYP2B6 (Homo sapiens (Human), UniProt P20813); assay: CYP inhibition in human liver microsomes; settings: read-out: CYP-2B6; human liver microsomes; probe substrate bupropion
Description: as §2

[11] = target: CYP2C9 (Homo sapiens (Human), UniProt P11712); assay: CYP inhibition in human liver microsomes; settings: read-out: CYP-2C9; human liver microsomes; probe substrate diclofenac
Description: as §2

[12] = in vivo; settings: Balb/c, mouse, po, 10 mg/kg
Description: (§3) Tested compounds were formulated at 1 mg/mL as a dosing solution for oral administration in vehicle A: 10% dimethylacetamide (DMAC), 20% propylene glycol, and 40% PEG-400 or vehicle B: 10% Kolliphor® EL and 10% ethanol (EtOH).
(§4) Animals were acclimated for a minimum period of 4 days upon arrival at the testing facility.
(§5) At the day of study, mice were weighed, identified by marking the tail with numbers using a non-toxic permanent marker, and designated into ten experimental groups (n=3 per group).
(§6) Non-dosed mice were used to collect samples of zero time points. […] Blood samples were centrifuged immediately at 9,000 g at 4° C. for 5 minutes and then plasmas were separated. Plasma samples were placed into individually labeled cryovials and stored in a −80° C. freezer until LC/MS/MS bioanalysis.
(§7) The bioanalysis of plasma samples was conducted with a QTRAP 4500 triple quadrupole mass spectrometer (Applied Biosystems SCIEX) in the positive ion mode and interfaced with an Ekspert Ultra LC100 UPLC System (Eksigent). Calibration standards (0.01 to 10 μM) and QCs (0.02, 0.2 and 2.0 μM) were prepared from naïve mouse plasma in parallel with mouse plasma study samples (60 μL) by precipitation with three volumes of ice cold internal standard solution (acetonitrile containing 20 μM of theophylline). The precipitated samples were centrifuged at 6,100 g for 30 min. Following centrifugation, an aliquot of each supernatant was transferred to an autosampler plate and diluted with two volumes of aqueous mobile phase (0.1% formic acid in water). Samples were injected onto a reverse phase analytical column (YMC Triart C18; 2.0×50 mm; 1.9 μm; YMC CO) and eluted with a gradient of 0.1% formic acid in Acetonitrile. Assayed test compound and internal standards were monitored by a multiple reaction monitoring (MRM) experiment using an Analyst software (v1.6.2, Applied Biosystems SCIEX). Quantitation was conducted using a MultiQuant software (v2.1, Applied Biosystems SCIEX) and the resulting calibration curve was fitted with a linear regression and 1/x weighting. The lower limits of quantitation were 1<LLQ <5 ng/mL.

[13] = mouse, in vivo, po, 10 mg/kg; for AUCExtr [%] / F [%] / Vz: Balb/c
Description: as §3, §4, §5, §6, §7

[14] = rat, rat liver microsomes, pH 7.4, read-out: T1/2 @ rLM
[15] = mouse, mouse liver microsomes, pH 7.4, read-out: T1/2 @ mLM

Chain of CYP2C19 (P33261 whole entry, canonical isoform): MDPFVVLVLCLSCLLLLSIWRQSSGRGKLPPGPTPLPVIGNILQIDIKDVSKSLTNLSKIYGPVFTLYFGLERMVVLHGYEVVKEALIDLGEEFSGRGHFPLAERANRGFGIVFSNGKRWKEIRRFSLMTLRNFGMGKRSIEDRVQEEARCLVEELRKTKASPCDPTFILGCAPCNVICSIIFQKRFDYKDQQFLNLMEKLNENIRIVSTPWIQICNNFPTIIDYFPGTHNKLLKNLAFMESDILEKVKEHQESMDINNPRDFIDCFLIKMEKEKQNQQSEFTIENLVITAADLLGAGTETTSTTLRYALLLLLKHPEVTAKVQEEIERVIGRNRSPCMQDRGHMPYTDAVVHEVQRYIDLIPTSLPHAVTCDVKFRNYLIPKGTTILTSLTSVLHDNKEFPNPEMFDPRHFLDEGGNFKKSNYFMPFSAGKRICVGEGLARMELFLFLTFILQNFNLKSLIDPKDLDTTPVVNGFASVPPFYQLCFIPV
Chain of CYP2C9 (P11712 whole entry): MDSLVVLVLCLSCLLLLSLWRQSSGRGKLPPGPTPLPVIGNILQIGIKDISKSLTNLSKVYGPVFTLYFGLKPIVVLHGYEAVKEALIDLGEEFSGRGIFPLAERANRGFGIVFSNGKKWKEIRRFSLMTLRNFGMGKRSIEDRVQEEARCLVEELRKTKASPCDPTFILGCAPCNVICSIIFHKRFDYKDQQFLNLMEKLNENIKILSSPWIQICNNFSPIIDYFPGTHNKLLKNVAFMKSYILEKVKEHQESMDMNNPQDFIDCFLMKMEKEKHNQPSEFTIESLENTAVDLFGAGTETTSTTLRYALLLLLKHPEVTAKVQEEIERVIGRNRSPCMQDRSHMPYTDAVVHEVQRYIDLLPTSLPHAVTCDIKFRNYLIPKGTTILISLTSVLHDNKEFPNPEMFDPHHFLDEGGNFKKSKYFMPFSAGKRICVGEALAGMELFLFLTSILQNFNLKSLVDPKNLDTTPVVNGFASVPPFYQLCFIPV
Chain of CYP3A4 (P08684 whole entry): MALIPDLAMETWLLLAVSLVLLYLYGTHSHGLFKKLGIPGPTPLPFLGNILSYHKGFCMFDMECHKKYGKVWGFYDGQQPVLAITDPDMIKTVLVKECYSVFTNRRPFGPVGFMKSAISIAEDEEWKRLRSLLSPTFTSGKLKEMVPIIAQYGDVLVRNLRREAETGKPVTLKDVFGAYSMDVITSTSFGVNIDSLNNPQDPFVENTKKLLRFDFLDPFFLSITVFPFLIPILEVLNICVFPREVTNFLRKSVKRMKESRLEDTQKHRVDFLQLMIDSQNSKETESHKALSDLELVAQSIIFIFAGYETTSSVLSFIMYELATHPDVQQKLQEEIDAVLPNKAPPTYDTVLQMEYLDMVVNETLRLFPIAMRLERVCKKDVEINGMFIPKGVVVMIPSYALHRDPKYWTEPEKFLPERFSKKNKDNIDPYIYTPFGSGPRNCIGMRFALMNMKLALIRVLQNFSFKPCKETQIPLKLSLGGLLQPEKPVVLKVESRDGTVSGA
Chain of CYP2C8 (P10632 whole entry): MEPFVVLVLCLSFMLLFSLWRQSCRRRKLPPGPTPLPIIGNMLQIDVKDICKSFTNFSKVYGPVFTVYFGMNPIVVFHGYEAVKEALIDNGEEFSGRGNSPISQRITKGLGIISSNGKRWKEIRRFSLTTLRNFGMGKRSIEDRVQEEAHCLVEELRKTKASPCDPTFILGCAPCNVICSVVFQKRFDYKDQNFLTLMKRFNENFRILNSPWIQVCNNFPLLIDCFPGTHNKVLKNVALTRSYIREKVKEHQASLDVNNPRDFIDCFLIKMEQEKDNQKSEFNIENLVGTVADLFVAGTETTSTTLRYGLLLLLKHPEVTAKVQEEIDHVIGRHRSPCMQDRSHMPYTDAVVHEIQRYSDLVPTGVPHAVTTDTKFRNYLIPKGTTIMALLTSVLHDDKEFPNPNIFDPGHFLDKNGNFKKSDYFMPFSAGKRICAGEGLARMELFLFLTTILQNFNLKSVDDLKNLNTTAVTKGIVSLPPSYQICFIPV
Chain of CYP2D6 (P10635 whole entry): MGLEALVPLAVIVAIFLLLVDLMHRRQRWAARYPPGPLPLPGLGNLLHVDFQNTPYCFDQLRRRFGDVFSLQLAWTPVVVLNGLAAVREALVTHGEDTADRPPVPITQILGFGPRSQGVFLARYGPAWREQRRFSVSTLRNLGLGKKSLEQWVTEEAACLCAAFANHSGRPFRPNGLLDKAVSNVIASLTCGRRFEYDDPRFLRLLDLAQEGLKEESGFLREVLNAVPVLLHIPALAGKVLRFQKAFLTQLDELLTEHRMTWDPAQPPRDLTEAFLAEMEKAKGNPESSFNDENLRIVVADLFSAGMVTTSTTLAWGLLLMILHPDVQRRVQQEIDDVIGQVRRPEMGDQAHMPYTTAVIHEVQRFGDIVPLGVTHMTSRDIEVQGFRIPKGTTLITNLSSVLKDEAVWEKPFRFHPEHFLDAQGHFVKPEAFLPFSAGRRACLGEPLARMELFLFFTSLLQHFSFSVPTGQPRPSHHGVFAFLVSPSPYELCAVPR
Chain of CYP2B6 (P20813 whole entry): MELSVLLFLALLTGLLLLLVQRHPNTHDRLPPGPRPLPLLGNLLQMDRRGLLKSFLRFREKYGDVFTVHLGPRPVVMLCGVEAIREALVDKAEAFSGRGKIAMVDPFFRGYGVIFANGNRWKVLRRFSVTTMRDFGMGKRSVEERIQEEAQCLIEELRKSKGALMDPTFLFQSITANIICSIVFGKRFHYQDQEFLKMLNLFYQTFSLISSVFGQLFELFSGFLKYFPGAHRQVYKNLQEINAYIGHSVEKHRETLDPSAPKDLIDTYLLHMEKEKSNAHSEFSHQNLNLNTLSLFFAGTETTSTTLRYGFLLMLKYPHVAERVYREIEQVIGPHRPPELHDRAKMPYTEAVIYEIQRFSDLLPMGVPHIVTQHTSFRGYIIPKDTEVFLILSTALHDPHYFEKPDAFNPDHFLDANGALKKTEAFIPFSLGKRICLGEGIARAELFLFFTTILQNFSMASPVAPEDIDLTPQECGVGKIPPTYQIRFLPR

| Compound | solubility kinetic at 1 h [1] | half-life at […], 1 µM [2] | microsomal CLint at […], 1 µM [2] | Rem. @ hLM (%) [2] | inhibition at 1 µM [3] | IC50 [3] | microsomal CLint at […], 1 µM ([4]; pH 7.4, rat liver microsomes) | half-life at […], 1 µM [4, 14] | Rem. @ rLM (%) [4] | half-life at […], 1 µM [5, 15] | microsomal CLint at […], 1 µM ([5]; pH 7.4, mouse liver microsomes) | Rem. @ mLM (%) [5] | pIC50 [6] | pIC50 [7] | pIC50 [8] | pIC50 [9] | pIC50 [10] | pIC50 [11] | AUC(0-inf) [12] | AUC(0-t) [12] | further results |
| --- | --- | --- | --- | --- | --- | --- | --- | --- | --- | --- | --- | --- | --- | --- | --- | --- | --- | --- | --- | --- | --- |
| O=C(Nc1cnn(Cc2ccc(C(F)(F)F)cc2C(F)(F)F)c1)c1cc(-c2cnccn2)on1 [Compound 114, N-(1-(2,4-bis(trifluoromethyl)benzyl)-1H-pyrazol-4-yl)-5-(pyrazin-2-yl)isoxazole-3-carboxamide] | 1.17 µM (≈ 0.564 µg/mL) | 3.55 h | 6.5 µL/min/mg | 90.4% | > 50% | < 1 µM | 25 µL/min/mg | 0.923 h | 69.7% | 2.75 h | 8.4 µL/min/mg | 86.8% | < 4.30 | < 4.30 | < 4.30 | < 4.30 | < 4.30 | < 4.30 | 11900 ng·h/mL | 10300 ng·h/mL | Cmax [12]: 899 ng/mL; Tmax [12]: 0.5 h; half-life [12]: 8.66 h; AUCExtr [%] [13]: 14%; F [%] [13]: 43.3%; Vz [13]: 10.5 L/kg; Last time point for AUClast [13]: 24 h |
| C[C@H](c1ccc(C(F)(F)F)cc1C(F)(F)F)n1cc(NC(=O)c2cn(-c3ccccn3)nn2)cn1 [Compound 121, (R)—N-(1-(1-(2,4-bis(trifluoromethyl)phenyl)ethyl)-1H-pyrazol-4-yl)-1-(pyridine-2-yl)-1H-1,2,3-triazole-4-carboxamide] | 3.51 µM (≈ 1.74 µg/mL) | 2.22 h | 10.4 µL/min/mg | 84.4% | 25 to 50% | < 1 µM | 23.9 µL/min/mg | – | 64.5% | – | 26.4 µL/min/mg | 62.5% | 5.54 | 4.52 | 4.45 | < 4.30 | 4.63 | < 4.34 | – | – | half-life at 1 μM [4, 14]: 0.968 h; half-life at 1 μM [5, 15]: 0.873 h |
| C[C@H](c1ccc(C(F)(F)F)cc1C(F)(F)F)n1cc(NC(=O)c2nnc(-c3ccccn3)s2)cn1 [Compound 123, (R)—N-(1-(1-(2,4-bis(trifluoromethyl)phenyl)ethyl)-1H-pyrazol-4-yl)-5-(pyridin-2-yl)-1,3,4-thiadiazole-2-carboxamide] | 1.17 µM (≈ 0.6 µg/mL) | 7.67 h | 3 µL/min/mg | 95.5% | > 50% | < 1 µM | 10.7 µL/min/mg | 2.17 h | 81.5% | 3.22 h | 7.2 µL/min/mg | 89.7% | < 4.30 | 4.48 | < 4.30 | < 4.30 | 4.37 | 4.50 | 62200 ng·h/mL | 38800 ng·h/mL | Cmax [12]: 4560 ng/mL; Tmax [12]: 1 h; half-life [12]: 19.1 h; AUCExtr [%] [13]: 37.7%; F [%] [13]: 64.1%; Vz [13]: 4.43 L/kg; Last time point for AUClast [13]: 24 h |
| C[C@H](c1ccc(C(F)(F)F)cc1C(F)(F)F)n1cc(NC(=O)c2nnc(-c3cnccn3)s2)cn1 [Compound 152, (R)—N-(1-(1-(2,4-bis(trifluoromethyl)phenyl)ethyl)-1H-pyrazol-4-yl)-5-(pyrazin-2-yl)-1,3,4-thiadiazole-2-carboxamide] | 28.1 µM (≈ 14.4 µg/mL) | 2.32 h | 10 µL/min/mg | 84.4% | > 50% | < 1 µM | 7.2 µL/min/mg | 3.2 h | 86.4% | 2.12 h | 10.9 µL/min/mg | 82.6% | < 4.30 | < 4.30 | < 4.30 | < 4.30 | < 4.30 | < 4.30 | – | – | – |
